The values that follow come from patent publication US11504382B2, “Tricyclic inhibitors of Hepatitis B virus” (Antios Therapeutics, Inc., priority 2018, dated 2022).

In this test the test system is HBV. The test can be described thus: HBV inhibition assay in HepAD38 cells (extracellular HBV DNA by direct qPCR). Format: cell-based, Hepatitis B virus. Particulars: 96 hours; for EC50: 8-point dose-response curve, read-out: HBV inh EC50; for inhibition at 0.1 µM / Anti HBV Activity (conc μM) / inhibition at 0.5 µM: relative to non-treated reference; for inhibition at 0.1 µM / inhibition at 0.5 µM: read-out: Anti HBV Activity (conc μM). Background: Real-time PCR tracks product formation cycle by cycle.

Where two headings read alike, the source gives them in different places.

In general, EC50 refers to the concentration that produces a half-maximal response. For the compound `Cc1cc(NC(=O)c2c3c(cn2C)S(=O)(=O)NC2CN(C(=O)C45CC(CO4)C5)CC2(C)CO3)ccc1F` (stereo not drawn) [Example E90, cis-2-(2-oxabicyclo[2.1.1]hexane-1-carbonyl)-N-(4-fluoro-3-methylphenyl)-7,10a-dimethyl-2,3,3a,4,10,10a-hexahydro-1H,7H-dipyrrolo[3,4-b:3′,4′-f][1,4,5]oxathiazocine-8-carboxamide 5,5-dioxide], the EC50 (Hepatitis B virus) was under 1000 nM.

Regarding `Cc1cc(NC(=O)c2c3c(cn2C)S(=O)(=O)NC2CN(C(=O)C4(C)COC4)CC2(C)CO3)ccc1F` (stereo not drawn) [Example E89, cis-N-(4-fluoro-3-methylphenyl)-7,10a-dimethyl-2-(3-methyloxetane-3-carbonyl)-2,3,3a,4,10,10a-hexahydro-1H,7H-dipyrrolo[3,4-b:3′,4′-f][1,4,5]oxathiazocine-8-carboxamide 5,5-dioxide], the EC50 (Hepatitis B virus) is under 1000 nM.

Regarding `C[C@@H](O)[C@H](N)C(=O)N1C[C@@H]2COc3c(cn(C)c3C(=O)Nc3cc(F)c(F)c(F)c3)S(=O)(=O)N[C@@H]2C1` (mixture of isomers) [Example E69, cis-2-(L-threonyl)-7-methyl-N-(3,4,5-trifluorophenyl)-2,3,3a,4,10,10a-hexahydro-1H,7H-dipyrrolo[3,4-b:3′,4′-f][1,4,5]oxathiazocine-8-carboxamide 5,5-dioxide], where the note is “Hepatitis B virus, 0.1 μM”, the inhibition at 0.1 µM is under 50%.

In the case of “ethyl 7-methyl-8-((3,4,5-trifluorophenyl)carbamoyl)-3a,4,10,10a-tetrahydro-1H,7H-dipyrrolo[3,4-b:3′,4′-f][1,4,5]oxathiazocine-2(3H)-carboxylate 5,5-dioxide (3aS,10aS) [Example E32]”, the EC50 was under 1000 nM. For the setting “0.1 μM”, the “Anti HBV Activity (conc μM)” value was “A (0.1) (HBV inhibition greater than 50% at the concentration indicated in the table)”. Turning to `Cc1cc(NC(=O)c2c3c(cn2C)S(=O)(=O)NC2CCN(C(=O)C45CC(CO4)C5)CC2CO3)ccc1F` (racemic) [Example E128, Cis-8-(2-oxabicyclo[2.1.1]hexane-1-carbonyl)-N-(4-fluoro-3-methylphenyl)-2-methyl-5,5a,6,7,8,9,9a,10-octahydro-2H-pyrido[4,3-f]pyrrolo[3,4-b][1,4,5]oxathiazocine-1-carboxamide 4,4-dioxide], the EC50 (Hepatitis B virus) is under 1000 nM.

For `Cn1cc2c(c1C(=O)Nc1ccc(F)c(F)c1)OCC1(C)CCCC1NS2(=O)=O` (stereo not drawn) [Example E29, N-(3,4-difluorophenyl)-2,8a-dimethyl-5a,6,7,8,8a,9-hexahydro-2H,5H-cyclopenta[f]pyrrolo[3,4-b][1,4,5]oxathiazocine-1-carboxamide 4,4-dioxide], the inhibition at 0.1 µM (Hepatitis B virus, 0.1 μM) is under 50%. In the case of `Cc1noc(N2C[C@H]3COc4c(cn(C)c4C(=O)Nc4ccc(F)c(Cl)c4)S(=O)(=O)N[C@H]3C2)n1` [Example E116, (3aR,10aR)—N-(3-chloro-4-fluorophenyl)-7-methyl-2-(3-methyl-1,2,4-oxadiazol-5-yl)-2,3,3a,4,10,10a-hexahydro-1H,7H-dipyrrolo[3,4-b:3′,4′-f][1,4,5]oxathiazocine-8-carboxamide 5,5-dioxide], the EC50 (Hepatitis B virus) was under 1000 nM. Turning to `Cn1cc2c(c1C(=O)Nc1ccc(F)c(F)c1)OC[C@@]1(O)CCC[C@H]1NS2(=O)=O` (racemic) [Example E30, cis-N-(3,4-difluorophenyl)-8a-hydroxy-2-methyl-5a,6,7,8,8a,9-hexahydro-2H,5H-cyclopenta[f]pyrrolo[3,4-b][1,4,5]oxathiazocine-1-carboxamide 4,4-dioxide], the inhibition at 0.5 µM (Hepatitis B virus) is under 50%. As to `CC(C)S(=O)(=O)N1CC2COc3c(cn(C)c3C(=O)Nc3cc(F)c(F)c(F)c3)S(=O)(=O)NC2C1` (racemic) [Example E18, cis-2-(isopropylsulfonyl)-7-methyl-N-(3,4,5-trifluorophenyl)-2,3,3a,4,10,10a-hexahydro-1H,7H-dipyrrolo[3,4-b:3′,4′-f][1,4,5]oxathiazocine-8-carboxamide 5,5-dioxide], the inhibition at 0.1 µM (Hepatitis B virus, 0.1 μM) was over 50%. In addition, for the setting “Hepatitis B virus”, the EC50 is under 1000 nM.

For the compound `Cc1cc(NC(=O)c2c3c(cn2C)S(=O)(=O)NC2CN(C(=O)c4nonc4N)CC2CO3)ccc1F` (stereo not drawn) [Example E61, cis-2-(4-amino-1,2,5-oxadiazole-3-carbonyl)-N-(4-fluoro-3-methylphenyl)-7-methyl-2,3,3a,4,10,10a-hexahydro-1H,7H-dipyrrolo[3,4-b:3′,4′-f][1,4,5]oxathiazocine-8-carboxamide 5,5-dioxide], under “Hepatitis B virus”, the EC50 is under 1000 nM. For the compound `Cn1cc2c(c1C(=O)Nc1ccc(F)c(F)c1)OCC1CCCC1NS2(=O)=O` (racemic) [Example E6, cis-N-(3,4-difluorophenyl)-2-methyl-5a,6,7,8,8a,9-hexahydro-2H,5H-cyclopenta[f]pyrrolo[3,4-b][1,4,5]oxathiazocine-1-carboxamide 4,4-dioxide], under “Hepatitis B virus”, the inhibition at 0.5 µM was over 50% and the EC50 was under 1000 nM. `Cc1cc(NC(=O)c2c3c(cn2C)S(=O)(=O)NC2CN(C(=O)c4ncoc4C)CCC2CO3)ccc1F` (racemic) [Example E144, Trans-N-(4-fluoro-3-methylphenyl)-2-methyl-7-(5-methyloxazole-4-carbonyl)-5,5a,6,7,8,9,9a,10-octahydro-2H-pyrido[3,4-f]pyrrolo[3,4-b][1,4,5]oxathiazocine-1-carboxamide 4,4-dioxide]: the EC50 is under 1000 nM. In the case of `Cc1nnc(C(=O)N2C[C@H]3COc4c(cn(C)c4C(=O)Nc4cc(F)c(F)c(F)c4)S(=O)(=O)N[C@H]3C2)o1` [Example E97, (3aR,10aR)-7-methyl-2-(5-methyl-1,3,4-oxadiazole-2-carbonyl)-N-(3,4,5-trifluorophenyl)-2,3,3a,4,10,10a-hexahydro-1H,7H-dipyrrolo[3,4-b:3′,4′-f][1,4,5]oxathiazocine-8-carboxamide 5,5-dioxide], the 50% effective concentration (EC50) (Hepatitis B virus) is under 1000 nM. For `Cc1cc(NC(=O)c2c3c(cn2C)S(=O)(=O)NC2CN(C(=O)c4ncoc4C)CCC2CO3)ccc1F` (racemic) [Example E139, Cis-N-(4-fluoro-3-methylphenyl)-2-methyl-7-(5-methyloxazole-4-carbonyl)-5,5a,6,7,8,9,9a,10-octahydro-2H-pyrido[3,4-f]pyrrolo[3,4-b][1,4,5]oxathiazocine-1-carboxamide 4,4-dioxide], the 50% effective concentration (EC50) (Hepatitis B virus) is under 1000 nM. The same measure, in the same setting: for `Cc1cc(NC(=O)c2c3c(cn2C)S(=O)(=O)N[C@@H]2CCN(C(=O)C4(C)COC4)C[C@H]2CO3)ccc1F` (relative stereo) [Example E131, Trans-N-(4-fluoro-3-methylphenyl)-2-methyl-8-(3-methyloxetane-3-carbonyl)-5,5a,6,7,8,9,9a,10-octahydro-2H-pyrido[4,3-f]pyrrolo[3,4-b][1,4,5]oxathiazocine-1-carboxamide 4,4-dioxide] the value was under 1000 nM.

Regarding `Cn1cc2c(c1C(=O)Nc1cc(F)c(F)c(F)c1)OC[C@@H]1CN(C(=O)c3nnc(N)o3)C[C@@H]1NS2(=O)=O` [Example E102, (3aR,10aR)-2-(5-amino-1,3,4-oxadiazole-2-carbonyl)-7-methyl-N-(3,4,5-trifluorophenyl)-2,3,3a,4,10,10a-hexahydro-1H,7H-dipyrrolo[3,4-b:3′,4′-f][1,4,5]oxathiazocine-8-carboxamide 5,5-dioxide], the EC50 (Hepatitis B virus) was under 1000 nM. On to `CCOC(=O)N1CC2COc3c(cn(C)c3C(=O)Nc3ccc(F)c(C#N)c3)S(=O)(=O)NC2C1` (single isomer, unassigned) [Example E46, Ethyl 8-((3-cyano-4-fluorophenyl)carbamoyl)-7-methyl-3a,4,10,10a-tetrahydro-1H,7H-dipyrrolo[3,4-b:3′,4′-f][1,4,5]oxathiazocine-2(3H)-carboxylate 5,5-dioxide (Chiral 3aS,10aS or 3aR,10aR - Stereochemistry unknown)], for which the “Anti HBV Activity (conc μM)” value (0.1 μM) is recorded as “B (0.1) (HBV inhibition less than 50% at the concentration indicated in the table)”.

With `Cc1cc(NC(=O)c2c3c(cn2C)S(=O)(=O)N[C@@H]2CN(C(=O)c4ccncc4)C[C@@H]2CO3)ccc1F` (relative stereo) [Example E55, cis-N-(4-fluoro-3-methylphenyl)-2-isonicotinoyl-7-methyl-2,3,3a,4,10,10a-hexahydro-1H,7H-dipyrrolo[3,4-b:3′,4′-f][1,4,5]oxathiazocine-8-carboxamide 5,5-dioxide], for the setting “Hepatitis B virus, 0.1 μM”, the inhibition at 0.1 µM was over 50%.

For the compound `CCOC(=O)N1CC2COc3c(cn(C)c3C(=O)Nc3ccc(F)c(C)c3)S(=O)(=O)NC2C1` (racemic) [Example E14, Cis-Ethyl 8-((4-fluoro-3-methylphenyl)carbamoyl)-7-methyl-3a,4,10,10a-tetrahydro-1H,7H-dipyrrolo[3,4-b:3′,4′-f][1,4,5]oxathiazocine-2(3H)-carboxylate 5,5-dioxide], where the note is “Hepatitis B virus, 0.1 μM”, the inhibition at 0.1 µM was over 50%. Besides, the EC50 (Hepatitis B virus) was under 1000 nM. Take “Ethyl 8-((3-chloro-4-fluorophenyl)carbamoyl)-7-methyl-3a,4,10,10a-tetrahydro-1H,7H-dipyrrolo[3,4-b:3′,4′-f][1,4,5]oxathiazocine-2(3H)-carboxylate 5,5-dioxide (3aR,10aR) [Example E41]”: the EC50 was under 1000 nM. For the same compound, the “Anti HBV Activity (conc μM)” value (0.05 μM) was “A (0.05) (HBV inhibition greater than 50% at the concentration indicated in the table)”. With `CCOC(=O)N1C[C@H]2CSc3c(cn(C)c3C(=O)Nc3ccc(F)c(C)c3)S(=O)(=O)N[C@H]2C1` [Example E121, Ethyl (3aR,10aR)-8-((4-fluoro-3-methylphenyl)carbamoyl)-7-methyl-3a,4,10,10a-tetrahydro-1H,7H-dipyrrolo[3,4-c:3′,4′-g][1,6,2]dithiazocine-2(3H)-carboxylate 5,5-dioxide], the EC50 (Hepatitis B virus) is under 1000 nM.

Turning to `Cc1cc(NC(=O)c2c3c(cn2C)S(=O)(=O)NC2CN(c4cccnc4)CC2CO3)ccc1F` (stereo not drawn) [Example E48, cis-N-(4-fluoro-3-methylphenyl)-7-methyl-2-(pyridin-3-yl)-2,3,3a,4,10,10a-hexahydro-1H,7H-dipyrrolo[3,4-b:3′,4′-f][1,4,5]oxathiazocine-8-carboxamide 5,5-dioxide], under “Hepatitis B virus”, the EC50 is under 1000 nM.
